Patent publication US12643879B2, “Functionalized heterocyclic compounds as modulators of stimulator of interferon genes (STING)” (RYVU THERAPEUTICS S.A., priority 2019, dated 2026)
Counter-ions that a name gives are not always drawn. Like-named read-outs stand apart in the source and are kept apart here.

How the values were obtained:
[1] = test system: NF-κB pathway in THP-1 dual cells; experiment: THP-1 Dual reporter assay, NF-κB pathway (SEAP); type: cell-based; details: Homo sapiens, THP1-Dual, read-out: THP1 Dual EC50 (μM) NFkB
Protocol: (§1) Compounds of the present invention were tested for their activity using THP-1 dual cells (Invivogen, cat no. thpd-nfis) allowing for simultaneous study of NF-κB pathway and the interferon regulatory factor (IRF) pathway. THP-1 dual cells contain luciferase reporter gene under the control of an ISG54 (interferon-stimulated gene) minimal promoter in conjunction with five interferon-stimulated response elements and a secreted embryonic alkaline phosphatase reporter gene under the control an IFN (interferon)-β minimal promoter fused to five copies of the NF-κB consensus transcriptional response element with three copies of the c-Rel binding site. Following 18 h of stimulation with STING agonist, medium was collected and transferred onto fresh cell culture plate. To verify activity of the IRF pathway, luminescence activity was measured with standard laboratory plate reader immediately after addition 10 μl of the medium to 40 or 50 μl of luminescence reagent (Invivogen, cat. No. rep-qlc2). To verify activity of NF-κB pathway, 10 or 20 μl of the medium was mixed with 80 μl of a detection medium (Invivogen, cat. No. rep-qb2) and incubated for 1 or 2 hours at 37° C. in a humidified atmosphere containing 5% CO2. Next, absorbance at 630 or 655 nm was recorded using standard laboratory plate reader.

[2] = test system: interferon regulatory factor (IRF) pathway in THP-1 dual cells; experiment: THP-1 Dual reporter assay, IRF pathway (luciferase); type: cell-based; details: Homo sapiens, THP1-Dual, read-out: THP1 Dual EC50 (μM) IRF
Protocol: as §1

[3] = 18 h stimulation, absorbance at 630 or 655 nm

Row | SMILES | EC50 [1, 3] [µM] | EC50 ([2]; 18 h stimulation, luminescence) [µM] | EC50 ([1]; 18 h) [µM] | EC50 ([2]; 18 h) [µM]
1 | Cc1ccc(N2CCC[C@H](N(Cc3ccnc(C)c3)Cc3cn(C4CC4)c4cc(N5CC[C@H](CNC(=O)CCOCCOCCOCCOCCN)C5)c(F)cc4c3=O)C2)cn1 [Example 15A, 1-amino-N-{[(3R)-1-[1-cyclopropyl-6-fluoro-3-({[(3S)-1-(6-methylpyridin-3-yl)piperidin-3-yl][(2-methylpyridin-4-yl)methyl]amino}methyl)-4-oxo-1,4-dihydroquinolin-7-yl]pyrrolidin-3-yl]methyl}-3,6,9,12-tetraoxapentadecan-15-amide] | 1 to 10 | 1 to 10 |  | 
2 | Cc1ccc(N2CCC[C@H](N(Cc3ccnc(C)c3)Cc3cn(C4CC4)c4cc(N5CCC(N(C)C(=O)OCc6ccc(NC(=O)[C@H](CCCNC(N)=O)NC(=O)[C@@H](NC(=O)CCOCCOCCOCCN=[N+]=[N-])C(C)C)cc6)CC5)c(F)cc4c3=O)C2)cn1 [Example 19A] | 1 to 10 | 1 to 10 |  | 
3 | Cc1cc(CN(Cc2c[nH]c3ccccc3c2=O)[C@H]2CCCN(c3ccc(N)nc3)C2)ccn1 [Example 38, 3-({[(3S)-1-(6-aminopyridin-3-yl)piperidin-3-yl][(2-methylpyridin-4-yl)methyl]amino}methyl)-1,4-dihydroquinolin-4-one] | < 1 | < 1 |  | 
4 | Cc1ccc(N2CCC[C@H](N(Cc3ccnc(C)c3)Cc3cn(C4CC4)c4cc(N5CC[C@H](O)C5)c(F)cc4c3=O)C2)cn1 [Example 39, 1-cyclopropyl-6-fluoro-7-[(3S)-3-hydroxypyrrolidin-1-yl]-3-({[(3S)-1-(6-methylpyridin-3-yl)piperidin-3-yl][(2-methylpyridin-4-yl)methyl]amino}methyl)-1,4-dihydroquinolin-4-one hydrochloride] | < 1 | < 1 |  | 
5 | Cc1cc(CN(Cc2cn(C)c3ccccc3c2=O)[C@H]2CCCN(c3ccc(CO)nc3)C2)ccn1 [Example 40, 3-({[(3S)-1-[6-(hydroxymethyl)pyridin-3-yl]piperidin-3-yl][(2-methylpyridin-4-yl)methyl]amino}methyl)-1-methyl-1,4-dihydroquinolin-4-one] | 1 to 10 | 1 to 10 |  | 
6 | Cc1ccc(N2CCC[C@H](N(Cc3ccnc(C)c3)Cc3cn(CCO)c4ccccc4c3=O)C2)cn1 [Example 41, 1-(2-hydroxyethyl)-3-({[(3S)-1-(6-methylpyridin-3-yl)piperidin-3-yl][(2-methylpyridin-4-yl)methyl]amino}methyl)-1,4-dihydroquinolin-4-one] | 1 to 10 | 1 to 10 |  | 
7 | Cc1ccc(N2CCC[C@H](N(Cc3ccnc(C)c3)Cc3cn(C(C)C)c4nc(N5CC[C@@H](O)C5)c(F)cc4c3=O)C2)cn1 [Example 42, 6-fluoro-7-[(3R)-3-hydroxypyrrolidin-1-yl]-3-({[(3S)-1-(6-methylpyridin-3-yl)piperidin-3-yl][(2-methylpyridin-4-yl)methyl]amino}methyl)-1-(propan-2-yl)-1,4-dihydro-1,8-naphthyridin-4-one] |  |  | < 1 | < 1
8 | Cc1cc(CN(Cc2cn(C)c3ccccc3c2=O)[C@H]2CCCN(c3ccc(CCO)nc3)C2)ccn1 [Example 43, 3-({[(3S)-1-[6-(2-hydroxyethyl)pyridin-3-yl]piperidin-3-yl][(2-methylpyridin-4-yl)methyl]amino}methyl)-1-methyl-1,4-dihydroquinolin-4-one] |  |  | 1 to 10 | 1 to 10
9 | Cc1cc(CN(Cc2cn(C)c3ccccc3c2=O)[C@H]2CCCN(c3cncc(CO)c3)C2)ccn1 [Example 44] |  |  | > 10 | > 10
10 | Cc1ccc(N2CCC[C@H](N(Cc3ccnc(C)c3)Cc3cn(C4CC4)c4cc(OCCOC(=O)NCc5ccc(NC(=O)CCOCCOCCOCCNC(=O)OC(C)(C)C)cc5)c(F)cc4c3=O)C2)cn1 [Example 47B, 2-{[1-cyclopropyl-6-fluoro-3-({[(3S)-1-(6-methylpyridin-3-yl)piperidin-3-yl][(2-methylpyridin-4-yl)methyl]amino}methyl)-4-oxo-1,4-dihydroquinolin-7-yl]oxy}ethyl N-{[4-(3-{2-[2-(2-{[(tert-butoxy)carbonyl]amino}ethoxy)ethoxy]ethoxy}propanamido)phenyl]methyl}carbamate] |  |  | < 1 | < 1
11 | Cc1cc(CN(Cc2cn(C3CC3)c3cc(N4CC[C@@H](O)C4)c(F)cc3c2=O)[C@H]2CCCN(c3noc(C)n3)C2)ccn1 [Example 48, 1-cyclopropyl-6-fluoro-7-[(3R)-3-hydroxypyrrolidin-1-yl]-3-({[(3S)-1-(5-methyl-1,2,4-oxadiazol-3-yl)piperidin-3-yl][(2-methylpyridin-4-yl)methyl]amino}methyl)-1,4-dihydroquinolin-4-one hydrochloride] | 1 to 10 | < 1 |  | 
12 | Cc1ccc(N2CCC[C@H](N(Cc3ccnc(C)c3)Cc3cn(C(C)C)c4cc(N5CC[C@@H](O)C5)ccc4c3=O)C2)cn1 [Example 52, 7-[(3R)-3-hydroxypyrrolidin-1-yl]-3-({[(3S)-1-(6-methylpyridin-3-yl)piperidin-3-yl][(2-methylpyridin-4-yl)methyl]amino}methyl)-1-(propan-2-yl)-1,4-dihydroquinolin-4-one] | < 1 | < 1 |  | 
13 | Cc1ccc(N2CCC[C@H](N(Cc3ccnc(C)c3)Cc3cn(C(C)C)c4cc(N5CCN(CCO)CC5)ccc4c3=O)C2)cn1 [Example 53, 7-[4-(2-Hydroxyethyl)piperazin-1-yl]-3-({[(3S)-1-(6-methylpyridin-3-yl)piperidin-3-yl][(2-methylpyridin-4-yl)methyl]amino}methyl)-1-(propan-2-yl)-1,4-dihydroquinolin-4-one] | < 1 | < 1 |  | 
14 | Cc1ccc(N2CCC[C@H](N(Cc3ccnc(C)c3)Cc3cn(C(C)C)c4cc(N5C[C@@H](O)[C@@H](O)C5)ccc4c3=O)C2)cn1 [Example 54, 7-[(3R,4S)-3,4-dihydroxypyrrolidin-1-yl]-3-({[(3S)-1-(6-methylpyridin-3-yl)piperidin-3-yl][(2-methylpyridin-4-yl)methyl]amino}methyl)-1-(propan-2-yl)-1,4-dihydroquinolin-4-one] | 1 to 10 | < 1 |  | 
15 | C#CCOCCOCCOCCOCCOCCC(=O)Nc1ccc(COC(=O)N(C)[C@@H]2CCN(c3cc4c(cc3F)c(=O)c(CN(Cc3ccnc(C)c3)[C@H]3CCCN(c5ccc(C)nc5)C3)cn4C3CC3)C2)cc1 [Example 55A] | < 1 | < 1 |  | 

Further lines, with some results ahead:

Row | EC50 [1, 3] [µM] | EC50 ([2]; 18 h stimulation, luminescence) [µM] | SMILES | EC50 ([1]; 18 h) [µM] | EC50 ([2]; 18 h) [µM]
16 | < 1 | < 1 | C#CCOCCOCCOCCOCCOCCC(=O)O[C@H]1CCCN(c2cc3c(cc2F)c(=O)c(CN(Cc2ccnc(C)c2)[C@H]2CCCN(c4ccc(C)nc4)C2)cn3C2CC2)C1 [Example 31A, (3S)-1-[1-cyclopropyl-6-fluoro-3-({[(3S)-1-(6-methylpyridin-3-yl)piperidin-3-yl][(2-methylpyridin-4-yl)methyl]amino}methyl)-4-oxo-1,4-dihydroquinolin-7-yl]piperidin-3-yl 4,7,10,13,16-pentaoxanonadec-18-ynoate] |  | 
17 | < 1 | < 1 | C#CCOCCOCCOCCOCCOCCC(=O)Nc1ccc(CNC(=O)O[C@H]2CCCN(c3cc4c(cc3F)c(=O)c(CN(Cc3ccnc(C)c3)[C@H]3CCCN(c5ccc(C)nc5)C3)cn4C3CC3)C2)cc1 [Example 31B, (3S)-1-[1-cyclopropyl-6-fluoro-3-({[(3S)-1-(6-methylpyridin-3-yl)piperidin-3-yl][(2-methylpyridin-4-yl)methyl]amino}methyl)-4-oxo-1,4-dihydroquinolin-7-yl]piperidin-3-yl N-{[4-(4,7,10,13,16-pentaoxanonadec-18-ynamido)phenyl]methyl}carbamate] |  | 
18 | < 1 | < 1 | C#CCOCCOCCOCCOCCOCCC(=O)OCCOc1cc2c(cc1F)c(=O)c(CN(Cc1ccnc(C)c1)[C@H]1CCCN(c3ccc(C)nc3)C1)cn2C1CC1 [Example 47A, 2-{[1-cyclopropyl-6-fluoro-3-({[(3S)-1-(6-methylpyridin-3-yl)piperidin-3-yl][(2-methylpyridin-4-yl)methyl]amino}methyl)-4-oxo-1,4-dihydroquinolin-7-yl]oxy}ethyl 4,7,10,13,16-pentaoxanonadec-18-ynoate] |  | 
19 | < 1 | < 1 | Cc1ccc(N2CCC[C@H](N(Cc3ccnc(C)c3)Cc3cn(C4CC4)c4cc(N5CC[C@@H](N(C)CCOCCOCCOCCOCCNC(=O)OC(C)(C)C)C5)c(F)cc4c3=O)C2)cn1 [Example 55B, tert-Butyl N-{2-[(3R)-1-[1-cyclopropyl-6-fluoro-3-({[(3S)-1-(6-methylpyridin-3-yl)piperidin-3-yl][(2-methylpyridin-4-yl)methyl]amino}methyl)-4-oxo-1,4-dihydroquinolin-7-yl]pyrrolidin-3-yl]-5,8,11,14-tetraoxa-2-azahexadecan-16-yl}carbamate] |  | 
